Measured values taken from patent publication US4592997A, “Process for the detection of the presence of an allergy and for the specific detection of the allergen responsible for the allergy” (Boehringer Mannheim GmbH, priority 1982, dated 1986).
Peptide text beside a SMILES is read from it. * marks the point of attachment. pNA = O=[N+]([O-])c1ccc(N*)cc1; Tos = Cc1ccc(S(=O)(=O)*)cc1; Cbz = O=C(OCc1ccccc1)*

Key:
leukocytes = assay: Protease liberation from leukocytes by anti-IgE or allergen, measured with Chromozym TH (Example 1 method); type: cell-based, human; conditions: for allergy towards the substance shown with the process (in words): general statement
Method: 60 ml. venous blood of a healthy donor were carefully mixed with 30 ml. of a dextran mixture (dextran with average M.W. of 75000 2%; D-glucose 2%, EDTA 20 mmol/liter; gelatine 0.07%) in a polyethylene beaker and transferred to a siliconised separating funnel. After leaving to stand for 60 to 90 minutes at room temperature, the supernatant containing the leukocytes (about 50 ml.) was separated off and mixed with 50 ml. tris buffer mixture of pH 7.6 (tris 22 mmol/liter; sodium chloride 0.12 mol/liter; potassium chloride 5 mmol/liter; gelatine 0.05%; EDTA 1 mmol/liter; D-glucose 0.1%) and centrifuged for 15 minutes at 800 g. After decanting, the cells were washed twice in that, in each case, they were again suspended in 50 ml. of the same buffer mixture (pH 7.6) and, in each case, centrifuged for 15 minutes at 800 g. The cells were then suspended in 10 ml. of the same buffer mixture.
(§1) Two 0.9 ml. amounts of cell suspension were each transferred to a polyethylene test tube, mixed with 0.4 ml. tris buffer mixture (pH 7.6) and brought to 37° C. in a water-bath. To one sample, there was added 0.1 ml. of anti-IgE solution (Behring-Werke, No. OTNP 04/05, diluted 1:500 with tris buffer mixture; pH 7.6) and to the other sample (the control) there was pipetted 0.1 ml. of tris buffer mixture (pH 7.6) and to both samples there was added 0.1 ml. calcium chloride solution (4 mmol/liter in isotonic sodium chloride solution; pH 7.6). The two samples were kept for 60 minutes at 37° C., then each was mixed with 0.5 ml. ice-cold EDTA solution (0.1 mol/liter in isotonic sodium chloride solution; pH 7.6) and centrifuged for 10 minutes at 4° C., and at 30000 g, the supernatant being pipetted off immediately after stopping the centrifuge.
To 0.5 ml of the supernatant was added 0.5 ml. of 1.5 mmol/l. […] The extinction difference between the two samples was determined after 1, 2 and 3 hours at 405 nm.

[1] = tested on: protease liberated from leukocytes after anti-IgE stimulation; assay: Splitting of chromogenic substrates by the protease liberated from leukocytes; type: biochemical, human
Method: as §1
To 0.5 ml of the supernatant was added 0.5 ml. of 1.5 mmol/l. Chromozym TH solution (1 bottle BM 199664 dissolved in 5 ml. water). The extinction difference between the two samples was determined after 1, 2 and 3 hours at 405 nm.
From two 0.9 ml. amounts of leukocyte suspension obtained according to Example 1.1 from the blood of a healthy donor, there was obtained protease according to Example 1.2, after anti-IgE stimulation, as centrifuge supernatant. The testing of the protease took place as in Example 1.3 but in the case of one sample, instead of Chromozym TH, there was added an equimolar amount of CBO-Gly-Pro-Arg-pNA. Within the first 3 hours equal ΔE/h values (ΔE/h=0.067) were measured.
The activity of two samples treated in parallel according to Example 1 was determined with Chromozym TH and with an equimolar amount of Chromozym PL. With Chromozym PL, there was found ΔE/h=0.052 and with Chromozym TH ΔE/h=0.048.
The protease activity of two samples treated in parallel according to Example 1 was determined with Chromozym TH and with an equimolar amount of S 2238. With S 2238 there was determined ΔE/h=0.037 and with Chromozym TH ΔE/h=0.048.

[2] = tested on: new protease from leukocytes; assay: Specific inhibitability of the new protease from leukocytes; type: biochemical, human; conditions: new leukocyte protease
[3] = tested on: kallikrein-like protease from leukocytes; conditions: cited from earlier work
[4] = Example 3, healthy donor, after anti-IgE stimulation, first 3 hours, equimolar substrate
[5] = Example 4, samples treated according to Example 1, equimolar substrate
[6] = Example 5, samples treated according to Example 1, equimolar substrate

nickel
allergy towards the substance shown with the process (in words) (leukocytes): demonstrated

CC(=O)O.Cc1ccc(S(=O)(=O)NCC(=O)N2CCC[C@H]2C(=O)N[C@@H](CCCNC(=N)N)C(=O)Nc2ccc([N+](=O)[O-])cc2)cc1 [Chromozym TH, tosyl-glycyl-prolyl-arginine-p-nitroanilide acetate] (Tos-Gly-Pro-Arg-pNA)
ΔE/h with the substrate [1, 4]: 0.067 h⁻¹
ΔE/h with the substrate [1, 5]: 0.048 h⁻¹
ΔE/h with the substrate [1, 6]: 0.048 h⁻¹

CC1(C)S[C@@H]2[C@H](NC(=O)[C@H](N)c3ccccc3)C(=O)N2[C@H]1C(=O)O [ampicillin]
additional extinction change ΔE/h versus unstimulated comparative sample (leukocytes; donor allergic to ampicillin): 0.558 h⁻¹
measurement value ΔE/h of the stimulated sample (leukocytes; donor allergic to ampicillin, 0.9 ml. leukocyte suspension): 0.893 h⁻¹
allergy towards the substance shown with the process (in words) (leukocytes): demonstrated

N=C(N)NCCC[C@H](NC(=O)[C@@H]1CCCN1C(=O)CNC(=O)OCc1ccccc1)C(=O)Nc1ccc([N+](=O)[O-])cc1 [CBO-Gly-Pro-Arg-pNA, reference compound] (Cbz-Gly-Pro-Arg-pNA)
ΔE/h with the substrate [1, 4]: 0.067 h⁻¹

NC(N)=NCCC[C@H](NC(=O)[C@@H]1CCCCN1C(=O)[C@H](N)Cc1ccccc1)C(=O)Nc1ccc([N+](=O)[O-])cc1 [S 2238, Phe-Pip-Arg-pNA]
ΔE/h with the substrate [1, 6]: 0.037 h⁻¹

Cc1ccc(S(=O)(=O)NCC(=O)N2CCC[C@H]2C(=O)N[C@@H](CCCCN)C(=O)Nc2ccc([N+](=O)[O-])cc2)cc1 [Chromozym PL, Tos-Gly-Pro-Lys-pNA] (Tos-Gly-Pro-Lys-pNA)
ΔE/h with the substrate [1, 5]: 0.052 h⁻¹

aprotinin [reference compound]
specific inhibitability by aprotonin I50 [2]: 1 mg/mL
specific inhibitability by aprotinin I50 ([3]; known kallikrein-like protease): about 50 μg./ml.

B1: soya bean trypsin inhibitor (protein, UniProt P01070 25-205, looked up)
Trypsin inhibitor A: DFVLDNEGNPLENGGTYYILSDITAFGGIRAAPTGNERCPLTVVQSRNELDKGIGTIISSPYRIRFIAEGHPLSLKFDSFAVIMLCVGIPTEWSVVEDLPEGPAVKIGENKDAMDGWFRLERVSDDEFNNYKLVFCPQQAEDDKCGDIGISIDHDDGTRRLVVSKNKPLVVQFQKLDKESL
inhibition by STI ([3]; 0.1 mole/l. STI): 11%
